In patent EP1016409B1, “FREEZE DRIED COMPOSITION COMPRISING GLYCOSPHINGOLIPIDS” (KIRIN BEER KABUSHIKI KAISHA, priority 1997, dated 1998):

Legend:
Assay type in all cases: physicochemical
[1] = Lyophilized preparations with Polysorbate 20 alone: re-solubility immediately after lyophilization; conditions: KRN7000 200 µg/ml, no excipient, reconstituted in 1 ml distilled water for injection
Protocol: (§1) Next, 20 mg of the active component (KRN7000) was weighed and stirred in 100 ml of the Polysorbate solutions having a variety of concentrations in a heated bath to 80°C for 20 minutes in order to form a solution. After cooling with running water, the mixture was filtered through a 0.22 µm filter, and transparent colorless glass vials having a volume of 5 ml were charged with a 1 ml portion of each of a variety of solutions and subjected to lyophilizaiton. Lyophilization was carried out under the condition of preliminary freezing at -40°C for 2 hours and drying at -20°C for 24 hours, 10°C for 12 hours, and finally at 25°C for 5 hours to give the lyophilized product. The degree of vacuum was set at 0.1 Torr or less during drying step.
After the lyophilization step, the lyophilized composition was reconstituted in 1 ml of distilled water for injection, left standing for 30 minutes, and solubility was judged when the foams generated on reconstituiton disappeared.
(§2) The solubility was judged by cleaning the outside of the vial and placing it beneath the white light source in a darkroom for observation with naked eye at the position of a luminous intensity of about 5,000 lux. When the sample was clear with no precipitates, it was judged that the active component was dissolved.

[2] = Additives for improving re-solubility during storage, sucrose as excipient; conditions: lyophilized, KRN7000 200 µg/ml, Polysorbate 20 0.5%, Sucrose 9.6%
Protocol: as §1, with “First, Polysorbate 20 was dissolved in distilled water in a concentration of 0.5%, and sucrose and a variety of additives such concentrations as listed in Table 9. Next,” for “Next,”, “solvents” for “Polysorbate solutions having a variety of concentrations”, “solutions thus obtained” for “solutions”, “lyophilization.” for “lyophilizaiton.”
After the lyophilization step, the lyophilized composition thus obtained was stored at 25°C or 50°C, or at both of these temperatures. After storage at 25°C for 1 month or at 50°C for 3 days, the lyophilized composition was reconstituted in 1 ml of distilled water for injection, left standing for 30 minutes, and solubility was judged when the foams generated on reconstitution disappeared. The samples judged in solution were further stored, and judged again of their solubility after storage at 25°C for 4 months or at 50°C for 2 weeks.
as §2

[3] = Optimal amount of Polysorbate 20: solubility of the solution after storage, by naked eye; set-up: key: + not dissolved (or deposited); - dissolved; conditions: KRN7000 200 µg/ml, 25°C
Protocol: Next, 20 mg of the active component (KRN7000) was weighed and stirred in 100 ml of the Polysorbate solutions having a variety of concentrations in a heated bath at 80°C for 20 minutes in order to form a solution. After cooling with running water, the mixture was filtered through a 0.22 µm filter, and transparent colorless glass vials having a volume of 5 ml were charged with a 2 ml portion of each of a variety of solutions and sealed up.
These samples were stored at 25°C for 2 weeks, and judged of their solubility. The samples judged in solution were further stored, and judged again of their solubility after 1 month.
as §2, with “in the” for “in a”

[4] = Excipient appropriate to lyophilization 2: re-solubility after storage; conditions: lyophilized, KRN7000 200 µg/ml, Polysorbate 20 0.5%, 25°C
Protocol: The lyophilized preparations having mannitol and sucrose added thereto were observed on their variation with the passage of time.
as §1, with “First, Polysorbate 20 was dissolved in distilled water in a concentration of 0.5%, and the saccharides were dissolved in such concentrations as listed in Table 7. Next,” for “Next,”, “solvents” for “Polysorbate solutions having a variety of concentrations”, “solutions thus obtained” for “solutions”, “lyophilization.” for “lyophilizaiton.”
After the lyophilization step, the lyophilized composition was stored at 25°C. After storage for 1 month, the lyophilized composition was reconstituted in 1 ml of distilled water for injection, left standing for 30 minutes, and solubility was judged when the foams generated on reconstitution disappeared. The samples judged in solution were further stored, and judged again of their solubility after 4 months.
as §2

Re-solubility immediately after lyophilization (by naked eye) ([1]; Polysorbate 20 0.5%): + (+ not dissolved (or deposited))
Re-solubility immediately after lyophilization (by naked eye) ([1]; Polysorbate 20 1.0%): + (+ not dissolved (or deposited))
Re-solubility immediately after lyophilization (by naked eye) ([1]; Polysorbate 20 2.0%): + (+ not dissolved (or deposited))
Re-solubility after storage (by naked eye) ([2]; Arginine, 0.1%, 50°C, 3 days): + (+ not dissolved (or deposited))
Re-solubility after storage (by naked eye) ([2]; Glycerol, 1%, 25°C, 1 month): + (+ not dissolved (or deposited))
Re-solubility after storage (by naked eye) ([2]; Glycine, 0.1%, 50°C, 3 days): + (+ not dissolved (or deposited))
Re-solubility after storage (by naked eye) ([2]; Glycine, 1%, 50°C, 3 days): + (+ not dissolved (or deposited))
Re-solubility after storage (by naked eye) ([2]; Histidine, 2%, 50°C, 2 weeks): - (- dissolved)
Re-solubility after storage (by naked eye) ([2]; Histidine, 2%, 50°C, 3 days): - (- dissolved)
Re-solubility after storage (by naked eye) ([2]; Pluronic F68, 0.1%, 25°C, 1 month): - (- dissolved)
Re-solubility after storage (by naked eye) ([2]; Pluronic F68, 0.1%, 25°C, 4 month): + (+ not dissolved (or deposited))
Re-solubility after storage (by naked eye) ([2]; Pluronic F68, 1%, 25°C, 1 month): - (- dissolved)
Re-solubility after storage (by naked eye) ([2]; Pluronic F68, 1%, 25°C, 4 month): + (+ not dissolved (or deposited))
Re-solubility after storage (by naked eye) ([2]; Propylene glycol, 1%, 25°C, 1 month): + (+ not dissolved (or deposited))
Re-solubility after storage (by naked eye) ([2]; Sodium deoxycholate, 0.1%, 25°C, 1 month): - (- dissolved)
Re-solubility after storage (by naked eye) ([2]; Sodium deoxycholate, 0.1%, 25°C, 4 month): + (+ not dissolved (or deposited))
Re-solubility after storage (by naked eye) ([2]; Sodium deoxycholate, 1%, 25°C, 1 month): - (- dissolved)
Re-solubility after storage (by naked eye) ([2]; Sodium deoxycholate, 1%, 25°C, 4 month): - (- dissolved)
Re-solubility after storage (by naked eye) ([2]; Sodium deoxycholate, 1%, 50°C, 2 weeks): - (- dissolved)
Re-solubility after storage (by naked eye) ([2]; Sodium deoxycholate, 1%, 50°C, 3 days): - (- dissolved)
Re-solubility after storage (by naked eye) ([2]; no additive, 25°C, 1 month): - (- dissolved)
Re-solubility after storage (by naked eye) ([2]; no additive, 25°C, 4 month): + (+ not dissolved (or deposited))
Re-solubility after storage (by naked eye) ([2]; no additive, 50°C, 3 days): + (+ not dissolved (or deposited))
Variation with the passage of time after storage (by naked eye) ([3]; Polysorbate 20 0.1%, 2 weeks): +
Variation with the passage of time after storage (by naked eye) ([3]; Polysorbate 20 0.2%, 2 weeks): +
Variation with the passage of time after storage (by naked eye) ([3]; Polysorbate 20 0.3%, 1 month): +
Variation with the passage of time after storage (by naked eye) ([3]; Polysorbate 20 0.3%, 2 weeks): -
Variation with the passage of time after storage (by naked eye) ([3]; Polysorbate 20 0.5%, 1 month): +
Variation with the passage of time after storage (by naked eye) ([3]; Polysorbate 20 0.5%, 2 weeks): -
Variation with the passage of time after storage (by naked eye) ([3]; Polysorbate 20 1.0%, 1 month): +
Variation with the passage of time after storage (by naked eye) ([3]; Polysorbate 20 1.0%, 2 weeks): -
Variation with the passage of time after storage (by naked eye) ([3]; Polysorbate 20 2.0%, 1 month): +
Variation with the passage of time after storage (by naked eye) ([3]; Polysorbate 20 2.0%, 2 weeks): -
Variation with the passage of time after storage (by naked eye) ([3]; Polysorbate 20 4.0%, 1 month): +
Variation with the passage of time after storage (by naked eye) ([3]; Polysorbate 20 4.0%, 2 weeks): -
Variation with the passage of time after storage (by naked eye) ([3]; Polysorbate 20 8.0%, 1 month): +
Variation with the passage of time after storage (by naked eye) ([3]; Polysorbate 20 8.0%, 2 weeks): -
Re-solubility after storage (by naked eye) ([4]; Mannitol 10%, 1 month): - (- dissolved)
Re-solubility after storage (by naked eye) ([4]; Mannitol 10%, 4 months): + (+ not dissolved (or deposited))
Re-solubility after storage (by naked eye) ([4]; Sucrose 9.6%, 1 month): - (- dissolved)
Re-solubility after storage (by naked eye) ([4]; Sucrose 9.6%, 4 months): + (+ not dissolved (or deposited))
Structure (SMILES): CCCCCCCCCCCCCCCCCCCCCCCCCC(=O)N[C@@H](CO[C@H]1O[C@H](CO)[C@H](O)[C@H](O)[C@H]1O)[C@H](O)[C@H](O)CCCCCCCCCCCCCC [KRN7000, (2S,3S,4R)-1-(α-D-galactopyranosyloxy)-2-hexacosanoylamino-3,4-octadecanediol]
